melting point: 203 to 205 °C
Structure (SMILES): COc1ccc(/C=C2/C(=O)NC(=S)N2C)cc1O [4d, (5Z)-5-(3-Hydroxy-4-methoxybenzylidene)-1-methyl-2-thioxoimidazolidin-4-one]
